Measurements from patent US8143212B2 (Vicuron Pharmaceuticals Inc., priority 2002, dated 2012).
Converted amounts (≈) assume the structure as drawn. “And” between values parts separate entries of the source, which are not always exact repeats. Equal entries are not always repeated. Where two headings read alike, the source gives them in different places.

What was measured:
S aureus = assay: MIC, microbiological activity (Tables 2, 3); assay type: cell-based
[1] = system: skin and soft tissue infections (SSTI); assay: Phase II SSTI trial: clinical response; assay type: in vivo, human
Protocol: This randomized, controlled study evaluated the safety and efficacy of two dose regimens of dalbavancin.
There were 62 patients randomized into the study; all received at least one dose of study medication. Four study populations were evaluated for safety and efficacy and were defined as follows: The intent-to-treat (ITT) population included all patients who received at least one dose of study drug (all randomized study subjects).
The effectiveness of the three treatment regimens was determined by assessing the patients' clinical response and the documented or presumed microbiological responses. The primary efficacy endpoint was clinical response at the follow-up visit for the clinically evaluable population. Clinical response, for both EOT and FU visits, was categorized as success (cure or improvement) or failure (including indeterminate results). Patients classified as successes must not have received additional systemic antibacterial treatment for their infection. Failure was defined as persistence of one or more local or systemic signs and symptoms of SSTI such that treatment with new or additional systemic antibacterial agents was required for the SSTI.

[2] = system: hepatic cytochrome P450 isoenzymes
clinical = details: human, in vivo
Description: The study enrolled otherwise healthy subjects with mild, moderate, or severe hepatic impairment (Child-Pugh scores 5 to 6, 7 to 9, and 10 to 15, respectively) and matched control subjects with normal hepatic function.

[3] = Pharmacokinetics and safety in subjects with renal impairment / ESRD (VER001-3, -11, -13); details: for half-life: human, plasma, intravenous
Protocol: The peak concentrations (Cmax) were obtained directly from the observed data. The area under the plasma concentration-time curve (AUC) were calculated using the linear trapezoidal rule.
Clinical Study VER001-13 examined subjects with mild and moderate renal impairment and Clinical Study VER001-1 examined subjects with severe renal impairment and subjects with end-stage renal disease (ESRD). Matched control subjects were enrolled in all studies. […] Subjects with ESRD were dependent on dialysis through the course of the study (3 times weekly).

SMILES: CN[C@H]1C(=O)N[C@@H]2Cc3ccc(cc3)Oc3cc4cc(c3O[C@@H]3O[C@H](C(=O)O)[C@@H](O)[C@H](O)[C@H]3NC(=O)CCCCCCCCC(C)C)Oc3ccc(cc3Cl)[C@@H](O)[C@@H]3NC(=O)[C@H](NC(=O)[C@@H]4NC(=O)[C@@H](NC2=O)c2cc(cc(O)c2Cl)Oc2cc1ccc2O)c1ccc(O)c(c1)-c1c(O[C@H]2O[C@H](CO)[C@@H](O)[C@H](O)[C@@H]2O)cc(O)cc1[C@@H](C(=O)NCCCN(C)C)NC3=O [Dalbavancin]
- MIC (S aureus; 3817 S aureus clin. Isolate, read-out: MIC): < 0.03 µg/mL
- MIC (S aureus; L 819 S aureus Smith 50% serum): 2 µg/mL (≈ 1.1 µM)
- MIC (S aureus; L 819 S aureus Smith 50% serum, read-out: MIC): 1 µg/mL (≈ 0.55 µM)
- MIC (S aureus; Staphylococcus aureus, MSSA, MSSA Staph. aureus Smith 819, read-out: MIC): 0.06 µg/mL (≈ 0.033 µM)
- Clinical Success Rate ([1]; Clinically evaluable at EOT, Single-dose (1100 mg)): 13/16 (61.5) %
- Clinical Success Rate ([1]; Clinically evaluable at EOT, Two-dose (1000/500 mg)): 16/17 (94.1) %
- Clinical Success Rate ([1]; Clinically evaluable at FU, Single-dose (1100 mg)): 8/13 (61.5) %
- Clinical Success Rate ([1]; Clinically evaluable at FU, Two-dose (1000/500 mg)): 16/17 (94.1) %
- Clinical Success Rate ([1]; ITT at EOT, Single-dose (1100 mg)): 15/20 (75.0) %
- Clinical Success Rate ([1]; ITT at EOT, Two-dose (1000/500 mg)): 19/21 (90.5) %
- Clinical Success Rate ([1]; ITT at FU, Single-dose (1100 mg)): 12/20 (60.0) %
- Clinical Success Rate ([1]; ITT at FU, Two-dose (1000/500 mg)): 19/21 (90.5) %
- Clinical Success Rate ([1]; MITT at EOT, Single-dose (1100 mg)): 10/14 (71.4) %
- Clinical Success Rate ([1]; MITT at EOT, Two-dose (1000/500 mg)): 12/13 (92.3) %
- Clinical Success Rate ([1]; MITT at FU, Single-dose (1100 mg)): 7/14 (50.0) %
- Clinical Success Rate ([1]; MITT at FU, Two-dose (1000/500 mg)): 12/13 (92.3) %
- Clinical Success Rate ([1]; MITT population with MRSA, FU assessment, single-dose): 50%
- Clinical Success Rate ([1]; MITT population with MRSA, FU assessment, two-dose): 80%
- Clinical Success Rate ([1]; Microbiologically evaluable at EOT, Single-dose (1100 mg)): 10/13 (76.9) %
- Clinical Success Rate ([1]; Microbiologically evaluable at EOT, Two-dose (1000/500 mg)): 10/11 (90.9) %
- Clinical Success Rate ([1]; Microbiologically evaluable at FU, Single-dose (1100 mg)): 6/11 (54.5) %
- Clinical Success Rate ([1]; Microbiologically evaluable at FU, Two-dose (1000/500 mg)): 10/11 (90.9) %
- Clinical Success Rate ([1]; clinically-evaluable population, FU assessment, single-dose: 1100 mg IV day 1): 61.5%
- Clinical Success Rate ([1]; clinically-evaluable population, FU assessment, two-dose: 1 g IV day 1 + 500 mg IV day 8): 94.1% and 94%
- metabolism in vitro [2]: not metabolized
- substrate, inhibitor, or inducer of hepatic cytochrome P450 isoenzymes [2]: not a substrate, inhibitor, or inducer
- clearance (clinical; CL): 0.777 mL/min
- Vd (clinical; Vss): 18.1 L
- half-life ([3]; 500 mg, t1/2, ESRD Postdialysis (N = 3), VER001-11, single dose 500 mg): 14.5 days
- half-life ([3]; 500 mg, t1/2, ESRD Predialysis (N = 3), VER001-11, single dose 500 mg): 15.7 days
- half-life ([3]; 500 mg, t1/2, Normal Renal Function (N = 6), VER001-11, single dose 500 mg): 13.9 days
- half-life ([3]; 500 mg, t1/2, Severe Renal Impairment (N = 6), VER001-11, single dose 500 mg): 18.9 days
- half-life ([3]; 1000 mg, t1/2, Mild Renal Impairment (N = 6), VER001-13, single dose 1000 mg): 16.2 days
- half-life ([3]; 1000 mg, t1/2, Moderate Renal Impairment (N = 6), VER001-13, single dose 1000 mg): 18 days
- half-life ([3]; 1000 mg, t1/2, Normal Renal Function (N = 9), VER001-13, single dose 1000 mg): 17.4 days
- half-life ([3]; 1000 mg, t1/2, Severe Renal Impairment (N = 4), VER001-11, single dose 1000 mg): 19.5 days
- half-life ([3]; 1120 mg, t1/2, Normal Renal Function (N = 3), VER001-2, single dose 1120 mg): 6.21 days
- increase in concentrations vs normal renal function ([3]; severe renal impairment, through the first week post-dose): ≤ 40%
